The test in a line: Release of camptothecin-induced cell cycle arrest in NCI-H1299 cells mediated by CHEK1 inhibition.

Each structure is given as a SMILES string.

What is called EC50 is the concentration that produces a half-maximal response. A lower EC50 goes with a more potent agent. Consider `O=c1[nH]c2ccc(-c3cn[nH]c3)cc2cc1-c1cc2cc(CN3CCCCC3)ccc2[nH]1`, for which the EC50 amounted to 0.097 µM. `O=c1[nH]c2ccc(-n3ccnn3)cc2cc1-c1cc2cc(CN3CCCCC3)ccc2[nH]1` [3-(5-(piperidin-1-ylmethyl)-1H-indol-2-yl)-6-(1H-1,2,3-triazol-1-yl)quinolin-2(1H)-one] showed an EC50 of 0.23 µM. Molecule `COCC(=O)N1CCN(Cc2ccc3[nH]c(-c4cc5cc(-c6cn[nH]c6)ccc5[nH]c4=O)cc3c2)CC1` [3-(5-((4-(2-methoxyacetyl)piperazin-1-yl)methyl)-1H-indol-2-yl)-6-(1H-pyrazol-4-yl)quinolin-2(1H)-one] displayed an EC50 of 1.14 µM.

Molecule `O=c1[nH]c2ccc(-n3ccnc3)cc2cc1-c1cc2cc(CN3CCCCC3)ccc2[nH]1` [6-(1H-imidazol-1-yl)-3-(5-(piperidin-1-ylmethyl)-1H-indol-2-yl)quinolin-2(1H)-one] yielded an EC50 of 0.32 µM. `Cn1cc(-c2ccc3[nH]c(=O)c(-c4cc5cc(CN6CCCCC6)ccc5[nH]4)cc3c2)cn1` [6-(1-methyl-1H-pyrazol-4-yl)-3-(5-(piperidin-1-ylmethyl)-1H-indol-2-yl)quinolin-2(1H)-one] registered an EC50 of 0.13 µM.

`O=c1[nH]c2ccc(-n3nccn3)cc2cc1-c1cc2cc(CN3CCCCC3)ccc2[nH]1` [3-(5-(piperidin-1-ylmethyl)-1H-indol-2-yl)-6-(2H-1,2,3-triazol-2-yl)quinolin-2(1H)-one] showed a concentration for a half-maximal effect (EC50) of 0.88 µM. `O=c1[nH]c2ccc(-c3cnsc3)cc2cc1-c1cc2cc(CN3CCCCC3)ccc2[nH]1` [6-(isothiazol-4-yl)-3-(5-(piperidin-1-ylmethyl)-1H-indol-2-yl)quinolin-2(1H)-one] gave an EC50 of 0.19 µM. `O=c1[nH]c2ccc(-c3cn[nH]c3)cc2cc1-c1cc2cc(CN3CCC(F)CC3)ccc2[nH]1` [3-(5-((4-fluoropiperidin-1-yl)methyl)-1H-indol-2-yl)-6-(1H-pyrazol-4-yl)quinolin-2(1H)-one] showed an EC50 of 0.12 µM.

The molecule `O=c1[nH]c2ccc(-c3cc[nH]n3)cc2cc1-c1cc2cc(CN3CCCCC3)ccc2[nH]1` [3-(5-(piperidin-1-ylmethyl)-1H-indol-2-yl)-6-(1H-pyrazol-3-yl)quinolin-2(1H)-one] came in with a 50% effective concentration (EC50) of 0.25 µM. In turn, `CC(=O)N1CCN(Cc2ccc3[nH]c(-c4cc5cc(-c6cn[nH]c6)ccc5[nH]c4=O)cc3c2)CC1` [3-(5-((4-acetylpiperazin-1-yl)methyl)-1H-indol-2-yl)-6-(1H-pyrazol-4-yl)quinolin-2(1H)-one] registered an EC50 of 0.87 µM.

With `CC(=O)N1CCN(Cc2ccc3[nH]c(-c4cc5cc(-c6cnn(C)c6)ccc5[nH]c4=O)cc3c2)CC1` [3-(5-((4-acetylpiperazin-1-yl)methyl)-1H-indol-2-yl)-6-(1-methyl-1H-pyrazol-4-yl)quinolin-2(1H)-one], it took 0.42 µM to reach a half-maximal effect (EC50).

Molecule `O=c1[nH]c2ccc(Br)cc2cc1-c1cc2cc(CN3CCCCC3)ccc2[nH]1` [6-bromo-3-(5-(piperidin-1-ylmethyl)-1H-indol-2-yl)quinolin-2(1H)-one] returned an EC50 of 0.46 µM. The molecule `O=c1[nH]c2ccc(-c3cccc(O)c3)cc2cc1-c1cc2cc(CN3CCCCC3)ccc2[nH]1` [6-(3-hydroxyphenyl)-3-(5-(piperidin-1-ylmethyl)-1H-indol-2-yl)quinolin-2(1H)-one] had an EC50 of 6.3 µM. In turn, `O=c1[nH]c2ccc(-c3cn[nH]c3)cc2cc1-c1cc2cc(CN3CCOCC3)ccc2[nH]1` [3-(5-(morpholinomethyl)-1H-indol-2-yl)-6-(1H-pyrazol-4-yl)quinolin-2(1H)-one] registered an EC50 of 0.17 µM. For the molecule `COc1cc(-c2ccc3[nH]c(=O)c(-c4cc5cc(CN6CCCCC6)ccc5[nH]4)cc3c2)ccc1O` [6-(4-hydroxy-3-methoxyphenyl)-3-(5-(piperidin-1-ylmethyl)-1H-indol-2-yl)quinolin-2(1H)-one], the EC50 was > 10 µM.

Turning to `N#Cc1ccc2[nH]c(=O)c(-c3cc4cc(CN5CCC(CN)CC5)ccc4[nH]3)cc2c1` [3-(5-((4-(aminomethyl)piperidin-1-yl)methyl)-1H-indol-2-yl)-2-oxo-1,2-dihydroquinoline-6-carbonitrile], the half-maximal effective concentration (EC50) turned out to be 3.7 µM. Molecule `N#Cc1ccc2[nH]c(=O)c(-c3cc4cc(CN5CCCCC5)ccc4[nH]3)cc2c1` [2-oxo-3-(5-(piperidin-1-ylmethyl)-1H-indol-2-yl)-1,2-dihydroquinoline-6-carbonitrile] registered an EC50 of 0.17 µM.

Take `NC(=O)c1ccc2[nH]c(=O)c(-c3cc4cc(CN5CCCCC5)ccc4[nH]3)cc2c1` [2-oxo-3-(5-(piperidin-1-ylmethyl)-1H-indol-2-yl)-1,2-dihydroquinoline-6-carboxamide]: the concentration giving a half-maximal response (EC50) was 0.52 µM. Consider `Cn1nnc(-c2ccc3[nH]c(=O)c(-c4cc5cc(CN6CCCCC6)ccc5[nH]4)cc3c2)n1` [6-(2-methyl-2H-tetrazol-5-yl)-3-(5-(piperidin-1-ylmethyl)-1H-indol-2-yl)quinolin-2(1H)-one], for which it took 1.3 µM to reach a half-maximal effect (EC50). Turning to `NCC1CCN(Cc2ccc3[nH]c(-c4cc5cc(C(N)=O)ccc5[nH]c4=O)cc3c2)CC1` [3-(5-((4-(aminomethyl)piperidin-1-yl)methyl)-1H-indol-2-yl)-2-oxo-1,2-dihydroquinoline-6-carboxamide], the EC50 worked out at 3.9 µM.
